Data from patent US7576088B2, “Benzodioxole derivatives” (Hoffman-La Roche Inc., priority 2002, dated 2009).
Read-outs that look alike come from different tables or passages of the source.

Assays:
[1] = biological target: T1, human cannabis CB1 receptor (Homo sapiens, UniProt P21554); experiment: Affinity for cannabinoid CB1 receptors, [3H]-CP-55,940 radioligand binding on HEK cell membranes
T1 construct: expressed in transfected cells; host or cells: human embryonic kidney (HEK) cells, Semliki Forest Virus system
T1 sequence (P21554 whole entry): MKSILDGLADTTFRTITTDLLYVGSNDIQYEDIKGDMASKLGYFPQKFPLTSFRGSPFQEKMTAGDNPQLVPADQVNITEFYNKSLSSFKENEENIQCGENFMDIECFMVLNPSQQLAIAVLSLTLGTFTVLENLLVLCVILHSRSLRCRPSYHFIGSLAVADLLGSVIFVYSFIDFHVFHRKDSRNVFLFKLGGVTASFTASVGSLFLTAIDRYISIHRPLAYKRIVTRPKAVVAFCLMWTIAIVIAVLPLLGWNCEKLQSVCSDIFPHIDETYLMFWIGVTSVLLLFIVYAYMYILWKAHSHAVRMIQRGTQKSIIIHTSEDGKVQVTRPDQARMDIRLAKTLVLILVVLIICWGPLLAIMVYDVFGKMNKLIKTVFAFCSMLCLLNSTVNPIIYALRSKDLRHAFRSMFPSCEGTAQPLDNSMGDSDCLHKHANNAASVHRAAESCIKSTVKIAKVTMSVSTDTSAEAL
Protocol: The affinity of the compounds of the invention for cannabinoid CB1 receptors was determined using membrane preparations of human embryonic kidney (HEK) cells in which the human cannabis CB1 receptor is transiently transfected using the Semliki Forest Virus system in conjunction with [3H]-CP-55,940 as radioligand. After incubation of a freshly prepared cell membrane preparation with the [3H]-ligand, with or without addition of compounds of the invention, separation of bound and free ligand was performed by filtration over glassfiber filters. Radioactivity on the filter was measured by liquid scintillation counting.

[2] = doses of 5, 10 and 20 mg daily; cited from earlier work
[3] = affinity for the CB1 receptor, read-out: IC50

| SMILES | IC50 [1, 3] | also measured |
| --- | --- | --- |
| O=C(c1cc2c(cc1F)OC(c1ccccc1Cl)(c1ccccc1Cl)O2)N1CCOCC1 |  | melting point: 98 °C |
| O=C(c1ccc2c(c1)OC(c1cccc(Cl)c1)(c1cccc(Cl)c1)O2)N1CCCCC1 |  | melting point: 54 °C |
| O=S(=O)(c1ccc2c(c1)OC(c1ccc(F)cc1)(c1ccc(Cl)cc1Cl)O2)N1CCCCC1 (racemic) [Example 39, 1-[2-(2,4-dichloro-phenyl)-2-(4-fluoro-phenyl)-benzo[1,3]dioxole-5-sulfonyl]-piperidine] | < 2000 nM |  |
| O=S(=O)(c1ccc2c(c1)OC(c1ccccc1)(c1ccccc1)O2)N1CCN(c2ccc(Cl)cc2Cl)CC1 [Example 4, 1-(2,4-dichloro-phenyl)-4-(2,2-diphenyl-benzo[1,3]dioxole-5-sulfonyl)-piperazine] | < 2000 nM |  |
| O=S(=O)(c1ccc2c(c1)OC(c1ccccc1)(c1ccccc1)O2)N1CCc2ccccc2C1 [Example 18, 2-(2,2-diphenyl-benzo[1,3]dioxole-5-sulfonyl)-1,2,3,4-tetrahydro-isoquinoline] | < 2000 nM |  |
| O=S(=O)(NCc1ccccc1)c1ccc2c(c1)OC(c1ccccc1)(c1ccccc1)O2 [Example 20, 2,2-diphenyl-benzo[1,3]dioxole-5-sulfonic acid benzylamide] | < 2000 nM |  |
| O=S(=O)(c1ccc2c(c1)OC(c1ccccc1)(c1ccccc1)O2)N1CCCN(c2ncc(C(F)(F)F)cc2Cl)CC1 [Example 22, 1-(3-chloro-5-trifluoromethyl-pyridin-2-yl)-4-(2,2-diphenyl-benzo[1,3]dioxole-5-sulfonyl)-[1,4]diazepane] | < 2000 nM |  |
| O=C(c1ccc2c(c1)OC(c1ccccc1)(c1ccccc1)O2)N1CCC2(CC1)OCCO2 [Example 46, (1,4-dioxa-8-aza-spiro[4.5]dec-8-yl)-(2,2-diphenyl-benzo[1,3]dioxol-5-yl)-methanone] |  | IC50 [1]: < 2000 nM |
| O=C(c1ccc2c(c1F)OC(c1ccccc1)(c1ccccc1)O2)N1CCOCC1 [Example 65, (4-fluoro-2,2-diphenyl-benzo[1,3]dioxol-5-yl)-morpholin-4-yl-methanone] | < 2000 nM |  |
| Fc1ccc(C2=CCN(Cc3ccc4c(c3)OC(c3ccccc3)(c3ccccc3)O4)CC2)cc1 [Example 75, 1-(2,2-diphenyl-benzo[1,3]dioxol-5-yl-methyl)-4-(4-fluoro-phenyl)-1,2,3,6-tetrahydro-pyridine] | < 2000 nM |  |
| O=C(c1cc2c(cc1F)OC(c1ccc(F)cc1)(c1ccc(Cl)cc1Cl)O2)N1CCOCC1 (stereo not drawn) [Example 108, [2-(2,4-dichloro-phenyl)-6-fluoro-2-(4-fluoro-phenyl)-benzo[1,3]dioxol-5-yl]-morpholin-4-yl-methanone] | < 2000 nM |  |
| O=C(c1cc2c(cc1F)OC(c1ccc(F)cc1)(c1ccc(F)cc1)O2)N1CCCC1 [Example 164, [6-fluoro-2,2-bis-(4-fluoro-phenyl)-benzo[1,3]dioxol-5-yl]-pyrrolidin-1-yl-methanone] | < 2000 nM |  |
| O=S(=O)(c1cc2c(cc1F)OC1(O2)c2ccccc2CCc2ccccc21)N1CCOCC1 [Example 234] | < 2000 nM |  |
| O=C(c1cc2c(cc1F)OC(c1ccccc1F)(c1ccccc1F)O2)N1CC[C@H](O)C1 [Example 271] | < 2000 nM |  |
| Cc1c(C(=O)NN2CCCCC2)nn(-c2ccc(Cl)cc2Cl)c1-c1ccc(Cl)cc1 [SR 141716, Rimonabant] |  | body weight compared to placebo [2]: significantly reduced body weight |
